These results are taken from patent US12559506B2, “Indazole based compounds and associated methods of use” (Arvinas Operations, Inc., priority 2021, dated 2026).

Where two headings read alike, the source gives them in different places.

One assay has as its target T1, wildtype LRRK2 (Homo sapiens, UniProt Q5S007).
T1 construct: expressed in transfected cells; host or cells: HEK293 (ATCC CRL-1573), transient transfection, mammalian expression vector with ubiquitin promoter
Description: LRRK2 degradation assay, HiBit-tagged wildtype LRRK2 expressed from plasmid in HEK293 cells (Nano-Glo Dual-Luciferase). The following applies: 24 hours; for Dmax: read-out: **WT Dmax (%); for DC50: read-out: *WT DC50. The assay is classed as cell-based. Summed up:
(§1)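 Degradation read as Nano-Glo HiBiT signal over firefly luciferase (cell number/viability) after 24 h compound exposure of transiently transfected HEK293 expressing C-terminally HiBiT-tagged wildtype or G2019S LRRK2. Data as % DMSO; DC50/Dmax fitted per plate, triplicate plates repeated twice.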

In the next assay the target is T2, G2019S LRRK2 (Homo sapiens, UniProt Q5S007, G2019S).
T2 construct: expressed in transfected cells; host or cells: HEK293 (ATCC CRL-1573), transient transfection, mammalian expression vector with ubiquitin promoter
T2 sequence (Q5S007 whole entry G2019S): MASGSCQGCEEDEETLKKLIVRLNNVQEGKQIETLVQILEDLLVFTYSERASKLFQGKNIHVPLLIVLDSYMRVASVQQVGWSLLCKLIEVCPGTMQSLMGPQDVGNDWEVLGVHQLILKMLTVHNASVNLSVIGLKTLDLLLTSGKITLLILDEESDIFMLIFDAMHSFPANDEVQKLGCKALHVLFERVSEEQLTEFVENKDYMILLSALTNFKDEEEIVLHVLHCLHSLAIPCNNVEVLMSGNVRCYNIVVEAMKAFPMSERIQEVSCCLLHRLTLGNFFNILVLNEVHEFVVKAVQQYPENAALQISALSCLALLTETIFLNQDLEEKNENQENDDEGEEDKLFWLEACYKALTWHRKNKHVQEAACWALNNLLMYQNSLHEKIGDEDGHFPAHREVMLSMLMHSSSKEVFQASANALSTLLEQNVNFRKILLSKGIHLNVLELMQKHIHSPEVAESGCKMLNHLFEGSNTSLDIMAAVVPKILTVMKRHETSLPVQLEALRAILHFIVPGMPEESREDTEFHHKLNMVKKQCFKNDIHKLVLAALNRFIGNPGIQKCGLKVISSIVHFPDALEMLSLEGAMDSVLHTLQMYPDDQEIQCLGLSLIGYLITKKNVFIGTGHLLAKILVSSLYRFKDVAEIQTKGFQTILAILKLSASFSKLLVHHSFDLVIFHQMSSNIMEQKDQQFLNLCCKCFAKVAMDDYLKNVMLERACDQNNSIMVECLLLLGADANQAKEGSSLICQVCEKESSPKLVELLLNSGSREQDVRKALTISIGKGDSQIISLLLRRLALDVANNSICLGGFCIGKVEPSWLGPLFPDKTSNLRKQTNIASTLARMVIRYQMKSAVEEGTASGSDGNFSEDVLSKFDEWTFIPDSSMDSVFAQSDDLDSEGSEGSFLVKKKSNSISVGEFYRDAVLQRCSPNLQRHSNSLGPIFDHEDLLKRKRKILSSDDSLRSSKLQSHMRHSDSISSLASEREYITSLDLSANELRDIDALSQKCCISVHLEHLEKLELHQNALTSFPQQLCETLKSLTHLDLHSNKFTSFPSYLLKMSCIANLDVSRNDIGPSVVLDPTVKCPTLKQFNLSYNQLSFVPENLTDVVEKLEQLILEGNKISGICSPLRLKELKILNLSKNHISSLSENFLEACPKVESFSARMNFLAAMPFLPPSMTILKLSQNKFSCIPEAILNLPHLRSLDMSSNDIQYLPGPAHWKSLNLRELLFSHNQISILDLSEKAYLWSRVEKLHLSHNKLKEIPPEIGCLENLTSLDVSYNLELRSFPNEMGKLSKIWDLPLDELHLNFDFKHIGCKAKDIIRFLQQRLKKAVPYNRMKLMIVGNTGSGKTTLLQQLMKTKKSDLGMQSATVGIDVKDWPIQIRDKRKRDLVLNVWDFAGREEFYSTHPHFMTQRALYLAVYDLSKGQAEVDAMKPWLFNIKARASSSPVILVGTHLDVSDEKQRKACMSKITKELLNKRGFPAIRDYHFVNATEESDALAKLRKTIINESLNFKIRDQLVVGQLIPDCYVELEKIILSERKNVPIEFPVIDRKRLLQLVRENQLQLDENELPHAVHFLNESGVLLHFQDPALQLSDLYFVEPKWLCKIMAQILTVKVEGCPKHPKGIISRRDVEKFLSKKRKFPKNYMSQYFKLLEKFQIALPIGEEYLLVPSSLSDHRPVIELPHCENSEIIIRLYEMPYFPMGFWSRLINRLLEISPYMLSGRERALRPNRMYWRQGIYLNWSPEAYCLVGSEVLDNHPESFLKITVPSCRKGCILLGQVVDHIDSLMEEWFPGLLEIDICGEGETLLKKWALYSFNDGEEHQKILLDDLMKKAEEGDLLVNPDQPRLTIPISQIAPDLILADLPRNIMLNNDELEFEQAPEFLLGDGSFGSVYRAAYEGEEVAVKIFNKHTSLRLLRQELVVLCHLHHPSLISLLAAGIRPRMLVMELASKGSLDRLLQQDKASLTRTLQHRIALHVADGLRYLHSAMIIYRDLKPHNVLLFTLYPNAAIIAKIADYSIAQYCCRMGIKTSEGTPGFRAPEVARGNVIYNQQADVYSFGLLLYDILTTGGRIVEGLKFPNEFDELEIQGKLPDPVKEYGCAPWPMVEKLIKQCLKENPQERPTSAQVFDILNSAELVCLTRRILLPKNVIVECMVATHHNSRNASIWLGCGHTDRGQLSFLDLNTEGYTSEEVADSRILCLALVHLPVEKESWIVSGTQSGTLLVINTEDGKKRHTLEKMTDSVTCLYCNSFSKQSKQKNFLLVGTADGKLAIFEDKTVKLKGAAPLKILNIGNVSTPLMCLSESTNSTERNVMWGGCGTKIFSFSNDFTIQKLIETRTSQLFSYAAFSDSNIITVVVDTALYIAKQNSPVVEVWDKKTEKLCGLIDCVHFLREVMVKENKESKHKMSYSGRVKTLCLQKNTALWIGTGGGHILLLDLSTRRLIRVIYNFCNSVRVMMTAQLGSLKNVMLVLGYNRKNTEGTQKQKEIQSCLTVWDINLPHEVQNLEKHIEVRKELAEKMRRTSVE
The experiment in a line: LRRK2 degradation assay, HiBit-tagged G2019S LRRK2 expressed from plasmid in HEK293 cells (Nano-Glo Dual-Luciferase). The assay is classed as cell-based. The following applies: 24 hours. The gist of the method:
as §1
Background: HiBiT is a short tag that completes a luciferase, so light tracks the accessible tagged protein.

Where [1] appears, read: HiBit-tagged wildtype LRRK2 in HEK293 cells.
Setting [2] is: HiBit-tagged G2019S LRRK2 in HEK293 cells.
Where [3] appears, read: HiBit-tagged wildtype LRRK2, HEK293 cells.
[4] abbreviates: HiBit-tagged G2019S LRRK2, HEK293 cells.

T1 sequence (Q5S007 whole entry): as the sequence (Q5S007 whole entry G2019S) above, with S2019G counted along it

What is called Dmax is the greatest extent of degradation seen. The term DC50 denotes the concentration at which degradation of the target reaches its halfway point. Take `CC1(Oc2ccc3[nH]nc(-c4cc(N5CCN(CCN6CCN(CC7CCN(c8ccc9c(c8)C(=O)N(C8CCC(=O)NC8=O)C9=O)CC7)CC6)CC5)ncn4)c3c2)CC1` (centres unmarked) [Compound 54, 2-(2,6-dioxopiperidin-3-yl)-5-[4-({4-[2-(4-{6-[5-(1-methylcyclopropoxy)-1H-indazol-3-yl]pyrimidin-4-yl}piperazin-1-yl)ethyl]piperazin-1-yl}methyl)piperidin-1-yl]-2,3-dihydro-1H-isoindole-1,3-dione]: on wildtype LRRK2 (setting [1]), the greatest degradation seen (Dmax) was at least 70% and the half-maximal degradation concentration (DC50) was below 10 nM. For the same compound, on G2019S LRRK2 (setting [2]), the 50% degradation concentration (DC50) was below 10 nM and the maximal degradation (Dmax) is at least 70%.

In the case of `CC1(Oc2ccc3[nH]nc(-c4cc(N5CC[C@H](CN6CCN(CC7CCN(c8ccc9c(c8)C(=O)N(C8CCC(=O)NC8=O)C9=O)CC7)CC6)C5)ncn4)c3c2)CC1` (stereo partly drawn) [Compound 166, 2-(2,6-dioxo-3-piperidyl)-5-[4-[[4-[[(3R)-1-[6-[5-(1-methylcyclopropoxy)-1H-indazol-3-yl]pyrimidin-4-yl]pyrrolidin-3-yl]methyl]piperazin-1-yl]methyl]-1-piperidyl]isoindoline-1,3-dione], on wildtype LRRK2 (setting [3]), the Dmax is below 50% and the half-maximal degradation concentration (DC50) was below 10 nM. At G2019S LRRK2 (setting [4]), this compound gave a 50% degradation concentration (DC50) below 10 nM and a Dmax below 50%.

Regarding `CC1(Oc2ccc3n[nH]c(-c4cc(N5CCC(CN6CCC(CN7CCN(c8ccc9c(c8)C(=O)N(C8CCC(=O)NC8=O)C9=O)CC7)CC6)CC5)ncn4)c3c2)CC1` (centres unmarked) [Compound 67, 2-(2,6-dioxo-3-piperidyl)-5-[4-[[1-[[1-[6-[5-(1-methylcyclopropoxy)-2H-indazol-3-yl]pyrimidin-4-yl]-4-piperidyl]methyl]-4-piperidyl]methyl]piperazin-1-yl]isoindoline-1,3-dione], the Dmax at wildtype LRRK2 (setting [1]) and on G2019S LRRK2 (setting [2]) was at least 70% throughout. The DC50 at wildtype LRRK2 (setting [1]) and on G2019S LRRK2 (setting [2]) was below 10 nM throughout.

Turning to `CC1(Oc2ccc3[nH]nc(-c4ccnc(N5CCN(CC6(F)CCN(CC7CCN(c8ccc9c(c8)C(=O)N(C8CCC(=O)NC8=O)C9=O)CC7)CC6)CC5)c4)c3c2)CC1` (centres unmarked) [Compound 80, 2-(2,6-dioxo-3-piperidyl)-5-[4-[[4-fluoro-4-[[4-[4-[5-(1-methylcyclopropoxy)-1H-indazol-3-yl]-2-pyridyl]piperazin-1-yl]methyl]-1-piperidyl]methyl]-1-piperidyl]isoindoline-1,3-dione], on wildtype LRRK2 (setting [1]), the maximal degradation (Dmax) is below 50% and the 50% degradation concentration (DC50) was below 10 nM. Also, on G2019S LRRK2 (setting [2]), the DC50 is below 10 nM and the maximal degradation (Dmax) lay within 50 to 70%.

Take `CC1(Oc2ccc3[nH]nc(-c4cc(N5CCC(O[C@H]6C[C@H](OC7CCN(c8ccc9c(c8)C(=O)N(C8CCC(=O)NC8=O)C9=O)CC7)C6)CC5)ncn4)c3c2)CC1` (some centres unmarked) [Compound 126, 2-(2,6-dioxo-3-piperidyl)-5-[4-[3-[[1-[6-[5-(1-methylcyclopropoxy)-1H-indazol-3-yl]pyrimidin-4-yl]-4-piperidyl]oxy]cyclobutoxy]-1-piperidyl]isoindoline-1,3-dione]: at wildtype LRRK2 (setting [1]), the Dmax is below 50% and the DC50 was 10 to 50 nM. Besides, at G2019S LRRK2 (setting [2]), the 50% degradation concentration (DC50) was in the range of 10 to 50 nM and the Dmax was below 50%.

Turning to `CC1(Oc2ccc3n[nH]c(-c4cc(N5CCN(CC6(F)CCN(C(=O)C7CN(c8ccc9c(c8)C(=O)N(C8CCC(=O)NC8=O)C9=O)C7)CC6)CC5)ncn4)c3c2)CC1` (centres unmarked) [Compound 136, 2-(2,6-dioxo-3-piperidyl)-5-[3-[4-fluoro-4-[[4-[6-[5-(1-methylcyclopropoxy)-2H-indazol-3-yl]pyrimidin-4-yl]piperazin-1-yl]methyl]piperidine-1-carbonyl]azetidin-1-yl]isoindoline-1,3-dione], at wildtype LRRK2 (setting [1]), the greatest degradation seen (Dmax) is 50 to 70% and the half-maximal degradation concentration (DC50) was below 10 nM. For the same compound, on G2019S LRRK2 (setting [2]), the 50% degradation concentration (DC50) was below 10 nM and the Dmax is 50 to 70%.

On to `CC1(Oc2ccc3[nH]nc(-c4ccnc(N5CCN(CC6CCN(C(=O)C7CCN(c8ccc9c(c8)C(=O)N(C8CCC(=O)NC8=O)C9=O)CC7)CC6)CC5)c4)c3c2)CC1` (centres unmarked) [Compound 91, 2-(2,6-dioxopiperidin-3-yl)-5-(4-{4-[(4-{4-[5-(1-methylcyclopropoxy)-1H-indazol-3-yl]pyridin-2-yl}piperazin-1-yl)methyl]piperidine-1-carbonyl}piperidin-1-yl)-2,3-dihydro-1H-isoindole-1,3-dione], for which the greatest degradation seen (Dmax) on wildtype LRRK2 (setting [1]) and on G2019S LRRK2 (setting [2]) was 50 to 70% each time. Also, the DC50 at wildtype LRRK2 (setting [1]) and at G2019S LRRK2 (setting [2]) was below 10 nM in each case.

On to `CC1(Oc2ccc3n[nH]c(-c4cc(N5CCC(Cc6ccc(CC7CCN(c8ccc9c(c8)C(=O)N(C8CCC(=O)NC8=O)C9=O)CC7)cc6)CC5)ncn4)c3c2)CC1` (centres unmarked) [Compound 171, 2-(2,6-dioxo-3-piperidyl)-5-[4-[[4-[[1-[6-[5-(1-methylcyclopropoxy)-2H-indazol-3-yl]pyrimidin-4-yl]-4-piperidyl]methyl]phenyl]methyl]-1-piperidyl]isoindoline-1,3-dione], for which the DC50 at wildtype LRRK2 (setting [3]) is at least 100 nM. For the same compound, on G2019S LRRK2 (setting [4]), the half-maximal degradation concentration (DC50) was at least 100 nM and the Dmax was below 50%.

With `C[C@H]1CN(c2cc(-c3[nH]nc4ccc(OC5(C)CC5)cc34)ncn2)CCN1CC1CCN(CC2CCN(c3cccc4c3CN(C3CCC(=O)NC3=O)C4=O)CC2)CC1` (stereo partly drawn) [Compound 145, 3-[4-[4-[[4-[[(2S)-2-methyl-4-[6-[5-(1-methylcyclopropoxy)-2H-indazol-3-yl]pyrimidin-4-yl]piperazin-1-yl]methyl]-1-piperidyl]methyl]-1-piperidyl]-1-oxo-isoindolin-2-yl]piperidine-2,6-dione], on wildtype LRRK2 (setting [1]), the Dmax was below 50% and the DC50 was below 10 nM. For the same compound, at G2019S LRRK2 (setting [2]), the DC50 was below 10 nM and the Dmax lay within 50 to 70%.

With `CC1(Oc2ccc3[nH]nc(-c4ccnc(N5CC(CCC6CCN(CC7CCN(c8ccc9c(c8)C(=O)N(C8CCC(=O)NC8=O)C9=O)CC7)CC6)C5)c4)c3c2)CC1` (centres unmarked) [Compound 165, 2-(2,6-dioxo-3-piperidyl)-5-[4-[[4-[2-[1-[4-[5-(1-methylcyclopropoxy)-1H-indazol-3-yl]-2-pyridyl]azetidin-3-yl]ethyl]-1-piperidyl]methyl]-1-piperidyl]isoindoline-1,3-dione], at wildtype LRRK2 (setting [3]), the maximal degradation (Dmax) is below 50% and the DC50 is below 10 nM. On G2019S LRRK2 (setting [4]), this compound displayed a DC50 below 10 nM and a Dmax of 50 to 70%.

As to `CC1(Oc2ccc3[nH]nc(-c4ccnc(N5CCC(CN6CCN(C(=O)C7CCN(c8ccc9c(c8)C(=O)N(C8CCC(=O)NC8=O)C9=O)CC7)CC6)CC5)c4)c3c2)CC1` (centres unmarked) [Compound 95, 2-(2,6-dioxopiperidin-3-yl)-5-(4-{4-[(1-{4-[5-(1-methylcyclopropoxy)-1H-indazol-3-yl]pyridin-2-yl}piperidin-4-yl)methyl]piperazine-1-carbonyl}piperidin-1-yl)-2,3-dihydro-1H-isoindole-1,3-dione], at wildtype LRRK2 (setting [1]), the greatest degradation seen (Dmax) lay within 50 to 70% and the DC50 is below 10 nM. Also, on G2019S LRRK2 (setting [2]), the half-maximal degradation concentration (DC50) was below 10 nM and the greatest degradation seen (Dmax) was in the range of 50 to 70%.

Take `CC1(Oc2ccc3[nH]nc(-c4ccnc(N5CCC56CN(CC5CCN(CC7CCN(c8ccc9c(c8)C(=O)N(C8CCC(=O)NC8=O)C9=O)CC7)CC5)C6)c4)c3c2)CC1` (centres unmarked) [Compound 162, 2-(2,6-dioxo-3-piperidyl)-5-[4-[[4-[[1-[4-[5-(1-methylcyclopropoxy)-1H-indazol-3-yl]-2-pyridyl]-1,6-diazaspiro[3.3]heptan-6-yl]methyl]-1-piperidyl]methyl]-1-piperidyl]isoindoline-1,3-dione]: the Dmax at wildtype LRRK2 (setting [3]) and at G2019S LRRK2 (setting [4]) was below 50% each time. Further, the DC50 was 50 to 100 nM at wildtype LRRK2 (setting [3]) and at least 100 nM at G2019S LRRK2 (setting [4]).

On to `CC1(Oc2ccc3[nH]nc(-c4cc(N5CCO[C@@H](CN6CCC(OC7CCN(c8ccc9c(c8)C(=O)N(C8CCC(=O)NC8=O)C9=O)CC7)CC6)C5)ncn4)c3c2)CC1` (stereo partly drawn) [Compound 149, 2-(2,6-dioxo-3-piperidyl)-5-[4-[[1-[[(2S)-4-[6-[5-(1-methylcyclopropoxy)-1H-indazol-3-yl]pyrimidin-4-yl]morpholin-2-yl]methyl]-4-piperidyl]oxy]-1-piperidyl]isoindoline-1,3-dione], for which, at wildtype LRRK2 (setting [1]), the greatest degradation seen (Dmax) was in the range of 50 to 70% and the half-maximal degradation concentration (DC50) lay within 10 to 50 nM. On G2019S LRRK2 (setting [2]), this compound returned a half-maximal degradation concentration (DC50) of 10 to 50 nM and a maximal degradation (Dmax) of 50 to 70%.

Consider `CC1(Oc2ccc3n[nH]c(-c4cc(N5CCN(Cc6ccc(CN7CCN(c8ccc9c(c8)C(=O)N(C8CCC(=O)NC8=O)C9=O)CC7)cc6)CC5)ncn4)c3c2)CC1` (centres unmarked) [Compound 169, 2-(2,6-dioxo-3-piperidyl)-5-[4-[[4-[[4-[6-[5-(1-methylcyclopropoxy)-2H-indazol-3-yl]pyrimidin-4-yl]piperazin-1-yl]methyl]phenyl]methyl]piperazin-1-yl]isoindoline-1,3-dione], for which, at wildtype LRRK2 (setting [3]), the Dmax was below 50% and the DC50 is below 10 nM. On G2019S LRRK2 (setting [4]), this compound displayed a 50% degradation concentration (DC50) of 10 to 50 nM and a maximal degradation (Dmax) of 50 to 70%.

On to `CC1(Oc2ccc3[nH]nc(-c4cc(N5CCC(CN6CCN(CC7CN(c8ccc9c(c8)C(=O)N(C8CCC(=O)NC8=O)C9=O)C7)CC6)CC5)ncn4)c3c2)CC1` (centres unmarked) [Compound 133, 2-(2,6-dioxo-3-piperidyl)-5-[3-[[4-[[1-[6-[5-(1-methylcyclopropoxy)-1H-indazol-3-yl]pyrimidin-4-yl]-4-piperidyl]methyl]piperazin-1-yl]methyl]azetidin-1-yl]isoindoline-1,3-dione], for which, on wildtype LRRK2 (setting [1]), the greatest degradation seen (Dmax) was 50 to 70% and the half-maximal degradation concentration (DC50) was below 10 nM. At G2019S LRRK2 (setting [2]), this compound had a half-maximal degradation concentration (DC50) below 10 nM and a maximal degradation (Dmax) of 50 to 70%.
